The values that follow come from patent US6573288B1, “Substituted sulphonyl cyanamides, method for producing same and their use as medicament” (Aventis Pharma Deutschland GmbH, priority 1998, dated 2003).

In general, melting point refers to the temperature, or range, at which the solid turns liquid.

The test system of series [1] is Na+-dependent Cl-/HCO3 exchanger (NCBE). Description: Inhibition of the Na+-dependent Cl-/HCO3- exchanger (NCBE) in human endothelial cells (BCECF fluorescence, FLIPR, pHi recovery). The class given is cell-based. Conditions: inhibitor concentration of 10 μM; human endothelial cells (ECV-304); in presence of 50 μM HOE 642. The protocol: Inhibition of the Na^+-dependent Cl^−/HCO3 exchanger (NCBE) in human endothelial cells
Human endothelial cells (ECV-304) were detached from culture flasks with the aid of trypsin/EDTA buffer (0.05/0.02% in phosphate buffer) and, after centrifugation (100 g, 5 min), taken up in a buffered salt solution (mmol/l: 115 NaCl, 20 NH4Cl, 5 KCl, 1 CaCl2, 1 MgSO4, 20 N-(2-hydroxyethyl)piperazine-N=-2-ethanesulfonic acid (HEPES), 5 glucose and 1, g/l of bovine serum albumin; pH 7.4). This cell suspension was incubated at 37° C. for 20 min with 5 μM BCECF acetoxymethyl ester. The cells were then washed and resuspended in a sodium- and bicarbonate-free buffer solution (mmol/l: 5 HEPES, 133.8 choline chloride, 4.7 KCl, 1.25 MgCl2, 0.97 K2HPO4, 0.23 KH2PO4, 5 glucose; pH 7.4).
For the subsequent fluorescence measurement in the FLIPR (Fluorescent Imaging Plate Reader), 100 μl of this cell suspension in each case containing 20,000 cells were added by pipette per well of a 96-well microtiter plate and this microtiter plate was centrifuged (100 g, 5 min). In the FLIPR, 100 μl of buffer solution in each case were then removed from a further prepared microtiter plate and added by pipette to each of the 96 wells of the measuring plate. In this case, for a 100% control, i.e. a recovery of the intracellular pH (pHi) by means of the NCBE, a bicarbonate- and sodium-containing buffer solution (mmol/l: 5 HEPES, 93.8 NaCl, 40 NaHCO3, 4.7 KCl, 1.25 CaCl2, 1.25 MgCl2, 0.97 Na2HPO4, 0.23 NaH2PO4, 5 glucose; pH 7.4) which contained 50 μM HOE 642 was used. […]
After addition of the buffer solutions to the dye-loaded acidified cells situated in the measuring plate, the increase in the fluorescence intensity which corresponded to an increase in the pHi was determined in each well of the microtiter plate. The kinetics were in this case recorded at 35° C. over a period of 2 minutes.
The increase in the fluorescence intensities for different concentrations of the compounds according to the invention was related to the two controls and from this the inhibitory action of the substances was determined.

On to `CCCCc1nc(SC)c(C(=O)OCC)n1Cc1cccc(Cc2cccc(S(=O)(=O)NC#N)c2)c1` [Example 2, Ethyl 2-butyl-5-methylsulfanyl-3-[3-(3′-cyanoaminosulfonylbenzyl)benzyl]-3H-imidazole-4-carboxylate], for which the melting point is 172 to 174 °C. Further, in series [1], the “Residual activity of the NCBE” value was found to be 35.2%.

As for `N#CNS(=O)(=O)c1cccc(Cc2cccc(Cn3c(-c4ccccc4)nc(Cl)c3C=O)c2)c1` [Example 3, 2-Phenyl-4-formyl-5-chloro-3-[3-(3′-cyanoaminosulfonylbenzyl)benzyl]-3H-imidazole], the melting point worked out at 75 °C. Also, in series [1], the “Residual activity of the NCBE” value amounted to 24.3%.

With `CCCCc1nc(SC)c(C(=O)OCC)n1Cc1ccc(Cc2cccc(S(=O)(=O)NC#N)c2)cc1` [Example 1, Ethyl 2-butyl-5-methylsulfanyl-3-[4-(3′-cyanoaminosulfonylbenzyl)benzyl]-3H-imidazole-4-carboxylate], the melting point came to 62 °C. For the same molecule, the “Residual activity of the NCBE” value in series [1] is listed as 11.1%.
